Article PMC4367188 (ACS Chemical Neuroscience, 2015)

Tests used:
[1] = target: T1, WT hCHT (Homo sapiens, UniProt Q9GZV3); experiment: cell-surface biotinylation, CHT surface expression in WT hCHT HEK 293 cells; type: cell-based
T1 sequence (Q9GZV3 1-580): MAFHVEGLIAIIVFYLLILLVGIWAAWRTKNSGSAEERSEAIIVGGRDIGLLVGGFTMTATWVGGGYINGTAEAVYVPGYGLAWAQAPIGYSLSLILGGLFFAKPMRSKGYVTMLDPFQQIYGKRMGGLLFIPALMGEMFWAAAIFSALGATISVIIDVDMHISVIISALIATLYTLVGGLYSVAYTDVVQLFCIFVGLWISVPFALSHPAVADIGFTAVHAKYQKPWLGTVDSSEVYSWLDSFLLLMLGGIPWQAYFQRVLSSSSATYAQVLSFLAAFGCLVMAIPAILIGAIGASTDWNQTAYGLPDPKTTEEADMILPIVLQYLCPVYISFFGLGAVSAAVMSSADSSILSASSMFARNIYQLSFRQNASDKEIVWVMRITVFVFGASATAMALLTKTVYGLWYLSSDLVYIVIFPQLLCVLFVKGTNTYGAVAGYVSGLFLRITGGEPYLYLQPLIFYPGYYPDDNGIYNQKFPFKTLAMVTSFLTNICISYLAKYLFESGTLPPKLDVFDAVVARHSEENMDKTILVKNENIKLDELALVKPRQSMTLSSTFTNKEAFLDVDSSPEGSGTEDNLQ

[2] = target: T2, hCHT (Homo sapiens, UniProt Q9GZV3); experiment: [3H]HC-3 binding to membranes from HEK hCHT cells
T2 sequence (Q9GZV3 1-580): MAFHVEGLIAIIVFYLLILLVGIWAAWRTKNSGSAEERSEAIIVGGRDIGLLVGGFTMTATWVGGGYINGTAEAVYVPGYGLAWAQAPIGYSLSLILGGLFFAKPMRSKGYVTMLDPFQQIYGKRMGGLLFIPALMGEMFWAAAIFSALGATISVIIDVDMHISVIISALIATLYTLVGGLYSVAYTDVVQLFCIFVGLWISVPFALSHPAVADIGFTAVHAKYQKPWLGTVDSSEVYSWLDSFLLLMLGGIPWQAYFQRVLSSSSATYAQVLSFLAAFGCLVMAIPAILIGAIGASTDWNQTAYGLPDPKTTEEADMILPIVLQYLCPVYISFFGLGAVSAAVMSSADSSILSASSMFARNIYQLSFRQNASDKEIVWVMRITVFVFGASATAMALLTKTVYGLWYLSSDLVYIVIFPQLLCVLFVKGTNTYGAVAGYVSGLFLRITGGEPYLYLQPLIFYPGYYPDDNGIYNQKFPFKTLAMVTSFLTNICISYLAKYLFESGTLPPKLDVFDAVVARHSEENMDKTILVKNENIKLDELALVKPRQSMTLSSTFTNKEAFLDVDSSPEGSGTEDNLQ

[3] = substrate: C[N+](C)(C)CCO; experiment: cells, lysate or membranes; settings: other: hCHT LV-AA transfected cells; no inhibitor; 37.0 °C

With `C[N+]1(C)CCOC(O)(c2ccc(-c3ccc(C4(O)C[N+](C)(C)CCO4)cc3)cc2)C1` (stereo not shown) [HC-3, hemicholinium-3, reference compound] the “increase in steady-state hCHT surface expression” value ([1]; 5 μM, 15 min incubation) was 76 ± 16 % of control and the Kd [2] was 8.5 ± 1.1 nM.

In the case of `C[N+](C)(C)CCO` [choline], the “effect of choline on CHT surface expression” value ([1]; choline (10 μM), 15 min) is reported as “no evidence for the previously reported choline-dependent reductions”.

B1: hCHT LV-AA (Homo sapiens; L531A/V532A) (protein)
chain: MAFHVEGLIAIIVFYLLILLVGIWAAWRTKNSGSAEERSEAIIVGGRDIGLLVGGFTMTATWVGGGYINGTAEAVYVPGYGLAWAQAPIGYSLSLILGGLFFAKPMRSKGYVTMLDPFQQIYGKRMGGLLFIPALMGEMFWAAAIFSALGATISVIIDVDMHISVIISALIATLYTLVGGLYSVAYTDVVQLFCIFVGLWISVPFALSHPAVADIGFTAVHAKYQKPWLGTVDSSEVYSWLDSFLLLMLGGIPWQAYFQRVLSSSSATYAQVLSFLAAFGCLVMAIPAILIGAIGASTDWNQTAYGLPDPKTTEEADMILPIVLQYLCPVYISFFGLGAVSAAVMSSADSSILSASSMFARNIYQLSFRQNASDKEIVWVMRITVFVFGASATAMALLTKTVYGLWYLSSDLVYIVIFPQLLCVLFVKGTNTYGAVAGYVSGLFLRITGGEPYLYLQPLIFYPGYYPDDNGIYNQKFPFKTLAMVTSFLTNICISYLAKYLFESGTLPPKLDVFDAVVARHSEENMDKTIAAKNENIKLDELALVKPRQSMTLSSTFTNKEAFLDVDSSPEGSGTEDNLQ
Molecule B1 has a Km [3] of 2.5 ± 0.4 µM.
